{"source": "patent US10045980B2", "about": "“Inhibitor of p38 map kinase” (RESPIVERT LTD, priority 2014, dated 2018)", "key": {"BEAS2B cells": {"tested_on": "BEAS2B cells", "assay": "Poly I:C-induced ICAM-1 expression in BEAS2B cells", "assay_type": "cell-based", "conditions": "Homo sapiens, BEAS-2B, 18 h after poly I:C transfection, read-out: PolyIC/ICAM1 IC50 (BEAS2B)", "procedure": "Poly I:C was used in these studies as a simple, RNA virus mimic. Poly I:C-Oligofectamine mixture (2% Oligofectamine±1 μg/mL Poly I:C, 25 μL; Life Technologies and Invivogen Ltd., San Diego, Calif., respectively) was transfected into BEAS2B cells (human bronchial epithelial cells, ATCC). Cells were pre-incubated with final concentrations of test compounds for 2 h and the level of ICAM-1 expression on the cell surface was determined by cell-based ELISA. […]\nThe cells were washed with PBS-Tween (3×200 μL) and incubated with the secondary antibody (100 μL; HRP-conjugated anti-rabbit IgG, Dako Ltd., Glostrup, Denmark). […] The ICAM-1 signal was detected by reading the absorbance at 450 nm against a reference wavelength of 655 nm using a spectrophotometer. The cells were then washed with PBS-Tween (3×200 μL) and total cell numbers in each well were determined by reading absorbance at 595 nm after Crystal Violet staining (50 μL of a 2% solution in PBS) and elution by 1% SDS solution (100 μL) in PBS. The measured OD 450-655 readings were corrected for cell number by dividing with the OD595 reading in each well. The inhibition of ICAM-1 expression was calculated at each concentration of test compound by comparison with vehicle control."}, "[1]": {"tested_on": "sputum macrophages from COPD patients", "assay": "Cytokine production in LPS-treated sputum macrophages from COPD patients", "assay_type": "cell-based", "conditions": "Homo sapiens, Macrophage; at 0.1 μg/mL; LPS 1 μg/mL, 18 h; read-out: Percent Inhibition IL-6", "procedure": "Patients with COPD inhaled a nebulised solution of 3% (w/v) hypertonic saline using an ultrasonic nebuliser (Devilbiss, Carthage, Mo.) with tidal breathing for 5 min. This procedure was repeated a maximum of three times until enough sputum was obtained. The sputum samples were homogenized and mixed vigorously using a vortex mixer in 0.02% v/v dithiothreitol (DTT) solution. The samples were re-suspended in PBS (40 mL) followed by centrifugation at 1500 rpm at 4° C. for 10 min to obtain sputum cell pellets. The pellets were washed with PBS (40 mL). […]\nWhere appropriate, 1 μL of a solution containing either the test compound or reference article at the stated concentrations (either 0.1 μg/mL, 0.01 μg/mL, or 0.001 μg/mL) or alternatively 1 μL of DMSO as the vehicle control was added to each well (200 μL in media) and the cells were incubated for 2 h. […] After washing with 200 μL wash buffer per well, the beads were resuspended in sheath fluid (150 μL) and analyzed immediately. The level of each analyte in the supernatant was calculated using Xcel Fit software with a 4 or 5-parameter equation using each standard curve. The inhibitions of each cytokine production were calculated at each concentration by comparison with vehicle control."}, "[2]": {"assay": "Chemical stability testing, degradation by UPLC", "assay_type": "physicochemical", "conditions": "stored up to 30 days, 50-80° C./10-75% RH; data not shown", "procedure": "Samples were extracted with solvent mixture (DMSO/water 80:20) (7 mL) in a 10 mL vial.\nUPLC chromatography was performed using the following parameters:\nAnalysis run time: 36 min Data collection time: 30 min Injection volume: 5 μL Wavelength: scan between 200 and 400 nm Wavelength used for content uniformity calculations: 334.0 nm\nThe compositions of Examples 4d, 4e, 4f, 4g, 4h and 4i were stored for 14 and 30 days under conditions of 50° C./75% RH, 60° C./30% RH, 60° C./50% RH, 70° C./10% RH, 70° C./75% RH and 80° C./50% RH."}, "[3]": {"assay": "Dynamic vapour sorption (DVS)", "assay_type": "physicochemical", "conditions": "25° C., RH 0-95%", "procedure": "About 20 mg of test compound was transferred into a SMS dynamic vapor sorption and record the weight change with respect to the atmospheric humidity at 25° C.\nThe following parameters were used:\ndrying: 60 min. under dry nitrogen\nequilibrium: 60 min/Step."}}, "note": "Counter-ions that a name gives are not always drawn."}
{"compound": "COCC(=O)Nc1cc(Oc2ccc(NC(=O)Nc3cc(C(C)(C)C)nn3-c3ccc(C)cc3)c3ccccc23)ccn1", "note": "[Reference Compound, N-(4-(4-(3-(3-tert-Butyl-1-p-tolyl-1H-pyrazol-5-yl)ureido)naphthalen-1-yloxy)pyridin-2-yl)-2-methoxyacetamide, reference compound]", "values": [{"measurement": "IC50", "setting": "BEAS2B cells", "result": 3.8, "unit": "nM"}]}
{"compound": "CCC(=O)O[C@]1(C(=O)SCF)[C@H](C)C[C@H]2[C@@H]3C[C@H](F)C4=CC(=O)C=C[C@]4(C)[C@@]3(F)[C@@H](O)C[C@@]21C", "note": "[Fluticasone propionate, fluticasone propionate, reference compound]", "values": [{"measurement": "inhibition at 0.1 µg/mL", "setting": "[1]", "result": "29 ± 21", "unit": "%"}]}
{"compound": "CCc1cncc(Nc2cc(COc3ccc(NC(=O)Nc4cc(C(C)(C)C)nn4-c4ccc(C)cc4)c4ccccc34)ccn2)n1", "note": "[Example 2A, 1-(3-(tert-butyl)-1-(p-tolyl)-1H-pyrazol-5-yl)-3-(4-((2-((6-ethylpyrazin-2-yl)amino)pyridin-4-yl)methoxy)naphthalen-1-yl)urea maleate (Form 2)]", "values": [{"measurement": "percentage of total degradation, unmicronised and unblended material", "setting": "[2]", "result": "always lower than that for the free base"}, {"measurement": "hygroscopicity (DVS)", "setting": "[3]", "result": "does not appear to be hygroscopic"}, {"measurement": "hygroscopicity (DVS)", "setting": "[3]; listed as Example 3B", "result": "appeared not to be hygroscopic"}]}
